Marks after values point to notes of the source that are not given here.
What was measured:
Format in all cases: in vivo
[1] = tested on: DSS-induced colitis in the mouse; assay: 10-day DSS-induced colitis, colon histological score (Example 5); settings: 1 mg/kg p.o. daily, day 10
Source text: (§1) Animals were divided into 5 experimental groups.
Their colons were removed and their length and weight measured after exclusion of the caecum.
(§2) Two sections (proximal and distal) of colon were taken from each animal and preserved in neutral buffered formalin for subsequent histological analysis (haematoxylin and eosin staining) according to the following scoring system:
Two sections (proximal and distal) of colon were taken from each animal, processed for histological analysis (haematoxylin and eosin staining) and scored by a blind observer according to the histological scoring system described above.

[2] = tested on: DSS-induced colitis in the mouse; assay: 10-day DSS-induced colitis, colon histological score (Example 6)
Description: as §2
(§3) Example 6 was carried out essentially as described in Example 5. The differences are indicated below.
(§4) Animals were divided into 9 experimental groups.
Two sections (proximal and distal) of colon were taken from each animal, processed for histological analysis (haematoxylin and eosin staining), and scored by a blind observer according to the scoring system described above.

[3] = tested on: DSS-induced colitis in the mouse; assay: 10-day DSS-induced colitis, Disease Activity Index (Example 5); settings: 1 mg/kg p.o. daily
Description: as §1
Colitis was induced in mice by supplementing their drinking water with DSS 2% for 7 days.
(§5) Daily clinical assessment of DSS-treated animals was carried out, with the calculation of a validated clinical Disease Activity Index (DAI) ranging from 0 to 4 according to the following parameters: stool consistency, presence or absence of rectal bleeding and weight loss:
Bodyweight loss was calculated as the percent difference between the original bodyweight (Day 1) and the actual bodyweight on each experimental day (2-10).
The appearance of diarrhoea is defined as mucus/faecal material adherent to anal fur. Rectal bleeding is defined as diarrhoea containing visible blood/mucus or gross rectal bleeding. The maximum score of the DAI each day is 12.

[4] = tested on: DSS-induced colitis in the mouse; assay: 10-day DSS-induced colitis, Disease Activity Index (Example 6); set-up: key: clinical Disease Activity Index (stool, bleeding, weight loss)
Description: as §5, §3, §4
The animals in group F received one dose i.v. and another dose s.c. (12 hours after the i.v. dose) of the corresponding test item for 10 consecutive days.
The animals in group G received one dose every two days of the corresponding test item for 10 consecutive days.
Methylprednisolone was given orally at a dose of 1 mg/kg (group H) and 10 mg/kg (group J) in a dosing volume of 5 ml/kg body weight, once daily for 10 consecutive days.

C[C@H]1C[C@@H]2[C@H]([C@@H](O)C[C@@]3(C)[C@H]2CC[C@]3(O)C(=O)COC(=O)CCC(=O)O)[C@@]2(C)C=CC(=O)C=C12 [Methylprednisolone 21-hemisuccinate, reference compound]
Histology Score Distal Colon [1]: 3.70 | Histology Score Proximal Colon [1]: 2.80* | Histology Score Proximal Colon ([1]; listed as prednisolone): 2.8±0.5 | Histology Score Distal Colon, mean ([2]; Group H, 1 mg/kg p.o.): 3.00*** | Histology Score Proximal Colon, mean ([2]; Group H, 1 mg/kg p.o.): 1.40 | Histology Score Distal Colon, mean ([2]; Group J, 10 mg/kg p.o.): 2.70*** | Histology Score Proximal Colon, mean ([2]; Group J, 10 mg/kg p.o.): 1.40 | DAI score ([3]; Day 1): 0.00 | DAI score ([3]; Day 2): 0.10 | DAI score ([3]; Day 3): 0.00 | DAI score ([3]; Day 4): 2.60 | DAI score ([3]; Day 5): 2.50 | DAI score ([3]; Day 6): 2.60 | DAI score ([3]; Day 7): 3.10 | DAI score ([3]; Day 8): 2.50* | DAI score ([3]; Day 9): 3.80* | DAI score ([3]; Day 10): 4.90** | DAI score, mean ([4]; Group H, 1 mg/kg p.o., Day 1): 0.00 | DAI score, mean ([4]; Group H, 1 mg/kg p.o., Day 2): 0.50 | DAI score, mean ([4]; Group H, 1 mg/kg p.o., Day 3): 0.50 | DAI score, mean ([4]; Group H, 1 mg/kg p.o., Day 4): 0.40 | DAI score, mean ([4]; Group H, 1 mg/kg p.o., Day 5): 1.10 | DAI score, mean ([4]; Group H, 1 mg/kg p.o., Day 6): 3.80 | DAI score, mean ([4]; Group H, 1 mg/kg p.o., Day 7): 5.90 | DAI score, mean ([4]; Group H, 1 mg/kg p.o., Day 8): 6.40 | DAI score, mean ([4]; Group H, 1 mg/kg p.o., Day 9): 5.60* | DAI score, mean ([4]; Group H, 1 mg/kg p.o., Day 10): 5.60* | DAI score, mean ([4]; Group J, 10 mg/kg p.o., Day 1): 0.00 | DAI score, mean ([4]; Group J, 10 mg/kg p.o., Day 2): 0.30 | DAI score, mean ([4]; Group J, 10 mg/kg p.o., Day 3): 0.70 | DAI score, mean ([4]; Group J, 10 mg/kg p.o., Day 4): 0.80 | DAI score, mean ([4]; Group J, 10 mg/kg p.o., Day 5): 1.30 | DAI score, mean ([4]; Group J, 10 mg/kg p.o., Day 6): 2.00 | DAI score, mean ([4]; Group J, 10 mg/kg p.o., Day 7): 3.20** | DAI score, mean ([4]; Group J, 10 mg/kg p.o., Day 8): 4.80** | DAI score, mean ([4]; Group J, 10 mg/kg p.o., Day 9): 5.20* | DAI score, mean ([4]; Group J, 10 mg/kg p.o., Day 10): 4.00***
